As usually defined, the EC50 is the concentration at which the effect is half-maximal. One may read the IC50 as the concentration needed to halve the response being measured.

Changes are numbered by the printed parent chain. Counter-ions that a name gives are not always drawn. Like-named read-outs stand apart in the source and are kept apart here. Where only a bound is given, the exact number is not on record here.

The target of series [1] is T1, human TRPV3 (Homo sapiens, UniProt Q8NET8).
T1 sequence (Q8NET8 1-790): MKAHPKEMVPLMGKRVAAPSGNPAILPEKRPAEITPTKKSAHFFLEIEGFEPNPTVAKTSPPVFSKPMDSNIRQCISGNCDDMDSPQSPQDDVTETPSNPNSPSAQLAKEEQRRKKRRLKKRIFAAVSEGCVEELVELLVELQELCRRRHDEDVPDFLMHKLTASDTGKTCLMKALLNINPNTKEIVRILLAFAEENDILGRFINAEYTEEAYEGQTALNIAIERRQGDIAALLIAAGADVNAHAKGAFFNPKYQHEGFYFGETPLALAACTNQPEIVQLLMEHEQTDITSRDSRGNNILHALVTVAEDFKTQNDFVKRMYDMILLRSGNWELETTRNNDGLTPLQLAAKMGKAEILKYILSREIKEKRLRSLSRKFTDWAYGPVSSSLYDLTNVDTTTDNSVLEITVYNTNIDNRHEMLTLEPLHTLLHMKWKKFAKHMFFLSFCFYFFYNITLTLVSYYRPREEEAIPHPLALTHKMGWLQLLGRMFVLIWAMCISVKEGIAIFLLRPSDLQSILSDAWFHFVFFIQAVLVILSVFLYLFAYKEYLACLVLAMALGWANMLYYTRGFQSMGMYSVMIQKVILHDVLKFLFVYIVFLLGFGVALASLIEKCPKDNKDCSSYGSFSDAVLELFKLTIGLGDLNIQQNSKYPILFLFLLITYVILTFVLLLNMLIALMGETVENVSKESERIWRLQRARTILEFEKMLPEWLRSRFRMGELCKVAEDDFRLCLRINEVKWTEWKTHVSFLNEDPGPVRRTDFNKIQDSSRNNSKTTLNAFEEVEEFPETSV
Put plainly: Re-evaluation of screening hits as TRPV3 agonists. Format: cell-based. To be noted: Table 1.

For series [2], the target named is T1, human TRPV3. Put plainly: Re-evaluation of screening hits as TRPV3 antagonists. It counts as cell-based. Particulars: Table 2; selectivity versus other TRP channel overexpressing HEK-293 lines.
Another series has as its system TRPV3. To be noted: cited from earlier work; for EC50: depending on the model used.
The subject of the next series is HaCaT cells. The series can be described thus: Cell viability assay. Particulars: data not shown. Format: cell-based, human.
The target of series [3] is T1, human TRPV3. Put plainly: Calcium flux in TRPV3 overexpressing HEK-293 cells. It counts as cell-based. (Calcium flux is commonly read through the fluorescence of an indicator in the cells.)
For a further series, the target named is T2, TRPV3-R696K (Homo sapiens, UniProt Q8NET8, R696K).
T2 sequence (Q8NET8 1-790 R696K): T1 sequence (Q8NET8 1-790) with R696K
The series can be described thus: Calcium flux in HEK-293 cells transiently transfected with TRPV3-R696K. It counts as cell-based. Particulars: 100 μmol/L carvacrol, 100 μmol/L 2-APB, 100 and 200 μmol/L drofenine.

For a further series, the target named is T3, TRPV3-H426N (Homo sapiens, UniProt Q8NET8, H426N).
T3 sequence (Q8NET8 1-790 H426N): T1 sequence (Q8NET8 1-790) with H426N
Put plainly: Calcium flux in HEK-293 cells transiently transfected with TRPV3-H426N. It counts as cell-based. Particulars: agonist 100 μmol/L.

The next series has as its target T4, TRPV3 in HaCaT cells (Homo sapiens, UniProt Q8NET8).
T4 sequence (Q8NET8 1-790): T1 sequence (Q8NET8 1-790)
The series can be described thus: Calcium flux in HaCaT cells. Format: cell-based.

Series [4] deals with T1, human TRPV3. Put plainly: Inhibition of agonist-induced calcium flux in TRPV3 overexpressing HEK-293 cells. Format: cell-based. Particulars: all three agonists (drofenine, carvacrol, 2-APB).
A further series has as its target human TRPV1 (Homo sapiens, UniProt Q8NER1). Put plainly: Calcium flux in HEK-293 cells overexpressing TRPV1. Format: cell-based. Particulars: Table 2 comment.

Chain of human TRPV1 (Q8NER1 whole entry): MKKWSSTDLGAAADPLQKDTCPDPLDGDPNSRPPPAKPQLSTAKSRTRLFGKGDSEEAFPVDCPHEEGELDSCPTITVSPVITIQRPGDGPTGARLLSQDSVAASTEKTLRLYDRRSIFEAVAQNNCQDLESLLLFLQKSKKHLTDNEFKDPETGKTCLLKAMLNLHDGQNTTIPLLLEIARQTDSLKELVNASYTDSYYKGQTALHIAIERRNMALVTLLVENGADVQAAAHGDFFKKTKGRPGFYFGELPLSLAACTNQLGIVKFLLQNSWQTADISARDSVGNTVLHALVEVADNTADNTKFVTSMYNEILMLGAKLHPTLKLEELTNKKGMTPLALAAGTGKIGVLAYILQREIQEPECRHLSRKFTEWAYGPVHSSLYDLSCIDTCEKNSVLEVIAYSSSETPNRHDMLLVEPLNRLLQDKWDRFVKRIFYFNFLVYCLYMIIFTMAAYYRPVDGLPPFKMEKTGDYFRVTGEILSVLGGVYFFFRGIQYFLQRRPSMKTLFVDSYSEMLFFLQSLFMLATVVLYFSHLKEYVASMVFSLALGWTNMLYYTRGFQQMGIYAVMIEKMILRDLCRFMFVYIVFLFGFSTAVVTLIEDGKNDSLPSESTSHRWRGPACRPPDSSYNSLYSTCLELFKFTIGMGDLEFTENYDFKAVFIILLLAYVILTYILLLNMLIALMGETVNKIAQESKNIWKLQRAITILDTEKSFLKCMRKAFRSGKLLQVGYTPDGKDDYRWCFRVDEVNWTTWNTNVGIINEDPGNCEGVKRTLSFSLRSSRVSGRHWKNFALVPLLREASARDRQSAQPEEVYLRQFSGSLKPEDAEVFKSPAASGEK

With `C[N+](C)(C)CCOC(N)=O` [Carbachol], the “Comment(s): re-evaluation as TRPV3 agonist” value (“Comment(s) … as TRPV3 agonist” below) at human TRPV3 [1] is reported as “Nonselective; HEK-293 response”.

For the compound `COc1cc([C@@H]2c3cc4c(cc3[C@@H](O[C@@H]3O[C@@H]5CO[C@@H](C)O[C@H]5[C@H](O)[C@H]3O)[C@H]3COC(=O)[C@H]23)OCO4)cc(OC)c1O` [Etoposide], at human TRPV3 [2], the “Comment(s): re-evaluation as TRPV3 antagonist” value was “Cytotoxic, false positive”. Take `O=C1C(CC[S+]([O-])c2ccccc2)C(=O)N(c2ccccc2)N1c1ccccc1` (centres unmarked) [Sulfinpyrazone]: the “Comment(s): re-evaluation as TRPV3 antagonist” value at human TRPV3 [2] was “Not inhibitory on rescreen”. `CC(C)=CCC/C(C)=C/CC/C(C)=C/COP(=O)(O)OP(=O)(O)O` [farnesyl pyrophosphate]: the 50% effective concentration (EC50) in the series on TRPV3 (ref Bang et al. [2010]) was about 0.13 µM.

As to `CC(=O)CC(c1ccccc1)c1c(O)c2ccccc2oc1=O` (centres unmarked) [Warfarin], the “Comment(s): re-evaluation as TRPV3 antagonist” value at human TRPV3 [2] is recorded as “Nonselective; also inhibited TRPV1”. Consider `CCCCCCc1ccc(O)cc1O.Nc1c2ccccc2nc2ccccc12` [Acrisorcin], for which the “Comment(s) … as TRPV3 agonist” value at human TRPV3 [1] is 4-Hexylresorcinol inactive as TRPV3 agonist; 9-aminoacridine fluorescence interference.

As to `CN[C@@H]1[C@H](O)[C@H](NC)[C@H]2O[C@@]3(O)C(=O)C[C@@H](C)O[C@H]3O[C@@H]2[C@H]1O.Cl.Cl.O.O.O.O.O` [Spectinomycin HCl], the “Comment(s): re-evaluation as TRPV3 antagonist” value on human TRPV3 [2] is “Not inhibitory on rescreen”. On to `O=C1NC(c2cccc([N+](=O)[O-])c2)=CCN1c1ccccc1O` [icilin], for which the “inhibition of TRPV3” value in the series on TRPV3 (ref Sherkheli et al. [2012]) is listed as “inhibits TRPV3 at low micromolar concentrations”. In addition, the cytotoxicity entry in the series with HaCaT cells was “potently cytotoxic”. For the compound `CC[C@H]1OC(=O)[C@H](C)[C@@H](O[C@H]2C[C@@](C)(OC)[C@@H](O)[C@H](C)O2)[C@H](C)[C@@H](O[C@@H]2O[C@H](C)C[C@H](N(C)C)[C@H]2O)[C@](C)(O)C[C@@H](C)C(=O)[C@H](C)[C@@H](O)[C@]1(C)O` [Erythromycin], the “Comment(s): re-evaluation as TRPV3 antagonist” value on human TRPV3 [2] is “Not inhibitory on rescreen”. For the compound `CC(C)COCC(CN(Cc1ccccc1)c1ccccc1)N1CCCC1.Cl.O` (centres unmarked) [Bepradil HCl], the “Comment(s) … as TRPV3 agonist” value on human TRPV3 [1] is recorded as “Inactive in confirmation assay”. Consider `Cc1ccc(C(C)C)cc1O` [carvacrol], for which the EC50 on human TRPV3 [3] is 438 µM; on TRPV3 in HaCaT cells, over 1 mM. Also, at TRPV3-R696K, the “calcium flux in TRPV3-R696K” value is “diminished-to-no-function”. For the same compound, the “calcium flux in TRPV3-H426N relative to TRPV3-WT” value on TRPV3-H426N is recorded as “no effect”. For `Cc1cccc2c1N(C(=O)CSc1ccc(C(F)(F)F)cn1)CCC2` [TRPV3 antagonist, 2-(5-trifluoromethyl-pyridine-2ylsulfanyl)-1-(8-methyl-3,4-dihydro-2H-quinolin-1-yl)-ethanone], the IC50 at human TRPV3 [4] was 1000 to 3000 nM. In the case of `Cc1ccc(C(C)(C)C)c(O)c1` [cresol, 6-tert-butyl-m-cresol], in the series on TRPV3 (ref Vogt-Eisele et al. [2007]), the EC50 is over 6000 µM. With `CC(=O)OC(C)C[N+](C)(C)C` (centres unmarked) [Methacholine], on human TRPV3 [1], the “Comment(s) … as TRPV3 agonist” value is “Nonselective; HEK-293 response”. As to `O=C(O)c1ccccc1Nc1cccc(C(F)(F)F)c1` [Flufenamic acid], at human TRPV3 [2], the “Comment(s): re-evaluation as TRPV3 antagonist” value is “Nonselective; also inhibited TRPV1”. `CC(=O)Nc1ccccc1` [Acetanilide]: the “Comment(s) … as TRPV3 agonist” value on human TRPV3 [1] is “Inactive in confirmation assay”. On to `CCCCOc1ccc(C(=O)CCN2CCCCC2)cc1` [Dyclonine HCl], for which the “Comment(s): re-evaluation as TRPV3 antagonist” value at human TRPV3 [2] is on record as “Not inhibitory on rescreen”.

Consider `O=C(N[C@H](CO)[C@H](O)c1ccc([N+](=O)[O-])cc1)C(Cl)Cl` [Chloramphenicol], for which, on human TRPV3 [2], the “Comment(s): re-evaluation as TRPV3 antagonist” value is reported as “Not inhibitory on rescreen”. With Acriflavinium HCl, the “Comment(s) … as TRPV3 agonist” value on human TRPV3 [1] is “Fluorescence interference”. Take `CCCCNc1ccc(C(=O)OCCN(C)C)cc1` [Tetracaine HCl]: on human TRPV1, the “concentration of apparent TRPV1 agonist activity” value was under 25 µmol/L. Moreover, the “Comment(s): re-evaluation as TRPV3 antagonist” value on human TRPV3 [2] is “inhibited TRPA1>V3=V1”. For the compound `CC(=O)OCC[N+](C)(C)C` [Acetylcholine], the “Comment(s) … as TRPV3 agonist” value at human TRPV3 [1] is on record as “Nonselective; HEK-293 response”.

Values taken from paper PMC4115637 (Pharmacology Research & Perspectives, 2014).
